Experimental data taken from patent publication US9212182B2, “Bicyclic sulfonamide compounds as sodium channel inhibitors” (AMGEN INC., priority 2013, dated 2015).

Target: Nav 1.7 (Homo sapiens (Human), UniProt Q15858)
Assay: in-vitro Nav 1.7 PX (IC50)
Format: cell-based
Settings: not given

Nav 1.7, sequence (Q15858 whole entry): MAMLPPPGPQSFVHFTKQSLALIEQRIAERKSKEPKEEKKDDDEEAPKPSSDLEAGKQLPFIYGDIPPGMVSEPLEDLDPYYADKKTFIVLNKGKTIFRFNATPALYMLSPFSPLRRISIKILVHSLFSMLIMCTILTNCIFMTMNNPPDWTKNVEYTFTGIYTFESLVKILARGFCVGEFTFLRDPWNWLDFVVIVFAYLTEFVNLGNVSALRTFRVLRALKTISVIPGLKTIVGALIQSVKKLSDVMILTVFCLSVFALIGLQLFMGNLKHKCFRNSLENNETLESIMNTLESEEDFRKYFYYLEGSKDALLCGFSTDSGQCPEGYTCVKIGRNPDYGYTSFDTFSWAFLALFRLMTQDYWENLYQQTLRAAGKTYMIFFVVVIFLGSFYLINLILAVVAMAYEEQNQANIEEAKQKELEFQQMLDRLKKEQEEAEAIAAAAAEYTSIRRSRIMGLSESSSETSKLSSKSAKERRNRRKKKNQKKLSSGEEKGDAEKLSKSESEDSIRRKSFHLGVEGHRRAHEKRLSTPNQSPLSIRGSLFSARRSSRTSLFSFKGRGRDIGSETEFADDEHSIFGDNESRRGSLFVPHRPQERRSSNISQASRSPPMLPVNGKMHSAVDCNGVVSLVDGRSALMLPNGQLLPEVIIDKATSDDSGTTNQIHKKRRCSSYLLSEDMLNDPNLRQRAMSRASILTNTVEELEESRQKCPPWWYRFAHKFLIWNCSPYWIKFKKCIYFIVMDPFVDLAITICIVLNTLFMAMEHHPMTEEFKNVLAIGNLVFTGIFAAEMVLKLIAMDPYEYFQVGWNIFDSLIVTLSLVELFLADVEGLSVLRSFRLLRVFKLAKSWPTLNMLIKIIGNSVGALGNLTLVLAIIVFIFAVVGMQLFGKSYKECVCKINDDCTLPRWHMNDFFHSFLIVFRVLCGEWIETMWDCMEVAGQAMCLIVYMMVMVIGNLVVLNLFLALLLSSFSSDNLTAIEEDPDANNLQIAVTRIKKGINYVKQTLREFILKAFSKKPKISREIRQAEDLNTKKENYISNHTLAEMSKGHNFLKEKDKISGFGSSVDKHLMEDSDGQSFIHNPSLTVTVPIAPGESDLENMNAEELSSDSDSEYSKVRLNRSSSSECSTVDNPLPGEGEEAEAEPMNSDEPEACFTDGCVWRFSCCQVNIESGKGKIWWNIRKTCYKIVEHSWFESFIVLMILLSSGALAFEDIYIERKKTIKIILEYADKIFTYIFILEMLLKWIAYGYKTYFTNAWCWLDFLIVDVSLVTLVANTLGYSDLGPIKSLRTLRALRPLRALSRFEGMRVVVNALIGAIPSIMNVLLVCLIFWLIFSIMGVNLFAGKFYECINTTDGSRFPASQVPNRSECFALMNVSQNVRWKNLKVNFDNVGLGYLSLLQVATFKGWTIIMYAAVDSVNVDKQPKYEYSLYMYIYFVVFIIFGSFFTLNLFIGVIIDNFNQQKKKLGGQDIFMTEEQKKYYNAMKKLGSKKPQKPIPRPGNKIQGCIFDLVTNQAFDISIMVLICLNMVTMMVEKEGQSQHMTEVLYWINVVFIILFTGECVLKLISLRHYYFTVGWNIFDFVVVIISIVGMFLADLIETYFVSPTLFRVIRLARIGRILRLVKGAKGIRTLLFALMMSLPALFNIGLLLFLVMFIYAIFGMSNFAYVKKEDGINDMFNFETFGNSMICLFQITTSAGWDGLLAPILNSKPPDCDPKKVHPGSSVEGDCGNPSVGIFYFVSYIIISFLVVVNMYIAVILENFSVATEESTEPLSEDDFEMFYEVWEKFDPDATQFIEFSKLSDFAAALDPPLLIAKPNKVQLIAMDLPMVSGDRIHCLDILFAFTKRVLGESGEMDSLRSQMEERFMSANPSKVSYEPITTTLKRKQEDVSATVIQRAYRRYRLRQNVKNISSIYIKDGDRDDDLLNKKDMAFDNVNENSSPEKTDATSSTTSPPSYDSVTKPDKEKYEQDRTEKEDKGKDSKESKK

IC50 [nM]	SMILES
13	COc1cc(-c2cc(F)cc(Cl)c2)c(F)cc1-n1c(=O)ccc2cc(S(=O)(=O)Nc3cnccn3)ccc21 (atropisomer, axis not shown; (P)) [Example 543, (P)-1-(3′-chloro-2,5′-difluoro-5-methoxy-4-biphenylyl)-2-oxo-N-2-pyrazinyl-1,2-dihydro-6-quinolinesulfonamide]
> 1000	COc1cc(-c2cc(C)cc(Cl)c2)ccc1-n1c(=O)ccc2cc(S(=O)(=O)Nc3ccon3)ccc21 (atropisomer, axis not shown; (M)) [Example 586, (M)-1-(3′-chloro-3-methoxy-5′-methyl-4-biphenylyl)-N-3-isoxazolyl-2-oxo-1,2-dihydro-6-quinolinesulfonamide]
54	COc1cc(-c2ccc(Cl)c(C)c2)ccc1-n1c(=O)cnc2cc(S(=O)(=O)Nc3ccon3)ccc21 [Example 1195, 1-(4′-chloro-3-methoxy-3′-methyl-4-biphenylyl)-N-3-isoxazolyl-2-oxo-1,2-dihydro-6-quinoxalinesulfonamide]
7590	COc1cc(-c2cccc(F)c2)c(C)cc1-n1c(=O)ccc2cc(S(=O)(=O)Nc3ccon3)ccc21 (atropisomer, axis not shown; (M)) [Example 428, (M)-1-(3′-fluoro-5-methoxy-2-methyl-4-biphenylyl)-N-3-isoxazolyl-2-oxo-1,2-dihydro-6-quinolinesulfonamide]
5	COc1cc(-c2cc(F)cc(Cl)c2)c(F)cc1-n1c(=O)ccc2cc(S(=O)(=O)Nc3ncon3)ccc21 (atropisomer, axis not shown; (P)) [Example 326, (P)-1-(3′-chloro-2,5′-difluoro-5-methoxy-4-biphenylyl)-N-1,2,4-oxadiazol-3-yl-2-oxo-1,2-dihydro-6-quinolinesulfonamide]

SMILES	IC50 [nM]
COc1cc(-c2cccc(F)c2)c(Cl)cc1-n1c(=O)ccc2cc(S(=O)(=O)Nc3ncccn3)ccc21 (atropisomer, axis not shown; (P)) [Example 355, (P)-1-(2-chloro-3′-fluoro-5-methoxy-[1,1′-biphenyl]-4-yl)-2-oxo-N-(pyrimidin-2-yl)-1,2-dihydroquinoline-6-sulfonamide]	31

Same assay, conditions: in-vitro Nav 1.7 PX data

SMILES	IC50 [nM]
COc1cc(C)ccc1-c1cc(OC)c(-n2c(=O)ccc3cc(S(=O)(=O)Nc4ccon4)ccc32)cc1F [Example 793, 1-(2-fluoro-2′,5-dimethoxy-4′-methyl-4-biphenylyl)-N-3-isoxazolyl-2-oxo-1,2-dihydro-6-quinolinesulfonamide]	48
COc1cc(-c2cccc(C(C)C)c2)ccc1-n1c(=O)ccc2cc(S(=O)(=O)Nc3ccon3)ccc21 [Example 783, N-3-isoxazolyl-1-(3-methoxy-3′-(1-methylethyl)-4-biphenylyl)-2-oxo-1,2-dihydro-6-quinolinesulfonamide]	9
COc1cc(-c2ccccc2)c(F)cc1-n1c(=O)ccc2cc(S(=O)(=O)Nc3ccon3)ccc21 [Example 701, 1-(2-fluoro-5-methoxy-4-biphenylyl)-N-3-isoxazolyl-2-oxo-1,2-dihydro-6-quinolinesulfonamide]	104
COc1cc(-c2cc(Cl)ccc2F)c(F)cc1-n1c(=O)ccc2cc(S(=O)(=O)Nc3ccon3)ccc21 [Example 707, 1-(5′-chloro-2,2′-difluoro-5-methoxy-4-biphenylyl)-N-3-isoxazolyl-2-oxo-1,2-dihydro-6-quinolinesulfonamide]	12
COc1cc(-c2ccc(Cl)cc2)c(F)cc1-n1c(=O)ccc2cc(S(=O)(=O)Nc3ncc(F)cn3)ccc21 [Example 750, 1-(4′-chloro-2-fluoro-5-methoxy-4-biphenylyl)-N-(5-fluoro-2-pyrimidinyl)-2-oxo-1,2-dihydro-6-quinolinesulfonamide]	10
COc1cc(Cl)cc(-c2ccc(-n3c(=O)ccc4cc(S(=O)(=O)Nc5ncc(F)cn5)ccc43)c(OC)c2)c1 [Example 927, 1-(3′-chloro-3,5′-dimethoxy-4-biphenylyl)-N-(5-fluoro-2-pyrimidinyl)-2-oxo-1,2-dihydro-6-quinolinesulfonamide]	15
COc1ccc(-c2cc(OC)c(-n3c(=O)ccc4cc(S(=O)(=O)Nc5ccon5)ccc43)cc2F)cc1F [Example 705, 1-(2,3′-difluoro-4′,5-dimethoxy-4-biphenylyl)-N-3-isoxazolyl-2-oxo-1,2-dihydro-6-quinolinesulfonamide]	41
COc1cc(-c2ccc(F)c(F)c2)c(F)cc1-n1c(=O)ccc2cc(S(=O)(=O)Nc3ncccn3)ccc21 [Example 935, 2-oxo-N-2-pyrimidinyl-1-(2,3′,4′-trifluoro-5-methoxy-4-biphenylyl)-1,2-dihydro-6-quinolinesulfonamide]	22
COc1cc(-c2ccc(C3CC3)cc2)c(F)cc1-n1c(=O)ccc2cc(S(=O)(=O)Nc3ccon3)ccc21 [Example 757, 1-(4′-cyclopropyl-2-fluoro-5-methoxy-4-biphenylyl)-N-3-isoxazolyl-2-oxo-1,2-dihydro-6-quinolinesulfonamide]	35
COc1ccccc1-c1cc(OC)c(-n2c(=O)ccc3cc(S(=O)(=O)Nc4ccon4)ccc32)cc1F [Example 956, 1-(2-fluoro-2′,5-dimethoxy-4-biphenylyl)-N-3-isoxazolyl-2-oxo-1,2-dihydro-6-quinolinesulfonamide]	99
COc1ccc(-c2cccc(F)c2)cc1-n1c(=O)ccc2cc(S(=O)(=O)Nc3ncccn3)ccc21 (atropisomer, axis not shown; (P)) [Example 606, (P)-1-(3′-fluoro-4-methoxy-3-biphenylyl)-2-oxo-N-2-pyrimidinyl-1,2-dihydro-6-quinolinesulfonamide]	159
COc1cc(-c2cccc(C3CC3)c2)c(F)cc1-n1c(=O)ccc2cc(S(=O)(=O)Nc3ccon3)ccc21 [Example 790, 1-(3′-cyclopropyl-2-fluoro-5-methoxy-4-biphenylyl)-N-3-isoxazolyl-2-oxo-1,2-dihydro-6-quinolinesulfonamide]	5
COc1cc(-c2cccc(C(F)(F)F)c2)c(F)cc1-n1c(=O)ccc2cc(S(=O)(=O)Nc3ccnc(C)n3)ccc21 [Example 804, 1-(2-fluoro-5-methoxy-3′-(trifluoromethyl)-4-biphenylyl)-N-(2-methyl-4-pyrimidinyl)-2-oxo-1,2-dihydro-6-quinolinesulfonamide]	14

The next lines start with the values.

IC50 [nM]	SMILES
106	COc1cc(-c2ccc(C)c(F)c2)c(F)cc1-n1c(=O)ccc2cc(S(=O)(=O)Nc3ccnc(C)n3)ccc21 [Example 1124, 1-(2,3′-difluoro-5-methoxy-4′-methyl-4-biphenylyl)-N-(2-methyl-4-pyrimidinyl)-2-oxo-1,2-dihydro-6-quinolinesulfonamide]
201	COc1nc(-c2cccc(C#N)c2)c(Cl)cc1-n1c(=O)ccc2cc(S(=O)(=O)Nc3ccon3)ccc21 [Example 1090, 1-(5-chloro-6-(3-cyanophenyl)-2-methoxy-3-pyridinyl)-N-3-isoxazolyl-2-oxo-1,2-dihydro-6-quinolinesulfonamide]
20	COc1cc(-c2cccc(C)c2)c(F)cc1-n1c(=O)ccc2cc(S(=O)(=O)Nc3ncc(F)cn3)ccc21 [Example 1109, 1-(2-fluoro-5-methoxy-3′-methyl-4-biphenylyl)-N-(5-fluoro-2-pyrimidinyl)-2-oxo-1,2-dihydro-6-quinolinesulfonamide]
9	COc1cc(CC2C[C@@H]3CC[C@@H]2C3)c(F)cc1-n1c(=O)ccc2cc(S(=O)(=O)Nc3ccon3)ccc21 (stereo partly shown) [Example 1082]
3240	COc1nc(-c2cccc(C)c2)c(Cl)cc1-n1c(=O)ccc2cc(S(=O)(=O)Nc3ccon3)ccc21 [Example 1089, 1-(5-chloro-2-methoxy-6-(3-methylphenyl)-3-pyridinyl)-N-3-isoxazolyl-2-oxo-1,2-dihydro-6-quinolinesulfonamide]
74	COc1ccc(F)c(-c2cc(OC)c(-n3c(=O)ccc4cc(S(=O)(=O)Nc5ncccn5)ccc43)cc2C)c1 [Example 965, 1-(2′-fluoro-5,5′-dimethoxy-2-methyl-4-biphenylyl)-2-oxo-N-2-pyrimidinyl-1,2-dihydro-6-quinolinesulfonamide]

Same assay, conditions: in-vitro Nav 1.7 PX data (PatchXpress)

IC50 [nM]	SMILES
28	COc1cc(-c2ccc(C)cc2Cl)ccc1-n1c(=O)ccc2cc(S(=O)(=O)Nc3ccon3)ccc21 [Example 1060, 1-(2′-chloro-3-methoxy-4′-methyl-4-biphenylyl)-N-3-isoxazolyl-2-oxo-1,2-dihydro-6-quinolinesulfonamide]
13	COc1cc(-c2cc(F)c(F)cc2C)ccc1-n1c(=O)ccc2cc(S(=O)(=O)Nc3ccon3)ccc21 [Example 1064, 1-(4′,5′-difluoro-3-methoxy-2′-methyl-4-biphenylyl)-N-3-isoxazolyl-2-oxo-1,2-dihydro-6-quinolinesulfonamide]
49	COc1cc(-c2cc(C)ccc2F)ccc1-n1c(=O)ccc2cc(S(=O)(=O)Nc3ccon3)ccc21 [Example 1032, 1-(2′-fluoro-3-methoxy-5′-methyl-4-biphenylyl)-N-3-isoxazolyl-2-oxo-1,2-dihydro-6-quinolinesulfonamide]

Same assay, conditions: in-vitro PatchXpress (PX)

IC50 [nM]	SMILES
8620	COc1cc(-c2ccc(C)c(F)c2)c(F)cc1-n1c(=O)ccc2cc(S(=O)(=O)Nc3ccon3)ccc21 (atropisomer, axis not shown; (M)) [Example 511, (M)-1-(2,3′-difluoro-5-methoxy-4′-methyl-4-biphenylyl)-N-3-isoxazolyl-2-oxo-1,2-dihydro-6-quinolinesulfonamide]
26	COc1cc(-c2ccc(C#N)c(Cl)c2)c(F)cc1-n1c(=O)ccc2cc(S(=O)(=O)Nc3ccon3)ccc21 (atropisomer, axis not shown; (P)) [Example 520, (P)-1-(3′-chloro-4′-cyano-2-fluoro-5-methoxy-4-biphenylyl)-N-3-isoxazolyl-2-oxo-1,2-dihydro-6-quinolinesulfonamide]
1640	COc1nc(N2CC(F)(F)C2)c(Cl)cc1-n1c(=O)ccc2cc(S(=O)(=O)Nc3ccon3)ccc21 [Example 342, 1-(5-chloro-6-(3,3-difluoroazetidin-1-yl)-2-methoxypyridin-3-yl)-N-(isoxazol-3-yl)-2-oxo-1,2-dihydroquinoline-6-sulfonamide]
